Laboratory results from ChEMBL document CHEMBL3885881, “DrugMatrix”.

Organism: Rattus norvegicus
Assay: DrugMatrix - Regimen: Daily Repeat
Format: toxicity, organism-based, Sprague-Dawley
Set-up: regimen Daily Repeat, gender Male, age 6-8 weeks
Conditions: in vivo, po, route oral GAVAGE, vehicle .5 % CMC; for BASOPHIL / EOSINOPHIL / ERYTHROCYTE COUNT / HEMATOCRIT / HEMOGLOBIN / LEUKOCYTE COUNT / LYMPHOCYTE / MEAN CORPUSCULAR HEMOGLOBIN / MEAN CORPUSCULAR HEMOGLOBIN CONCENTRATION / MEAN CORPUSCULAR VOLUME / MONOCYTE / NEUTROPHIL / PLATELET COUNT: tissue Blood; for ALANINE AMINOTRANSFERASE / ALBUMIN / ALKALINE PHOSPHATASE / ASPARTATE AMINOTRANSFERASE / BLOOD UREA NITROGEN / CHLORIDE / CHOLESTEROL / CREATINE PHOSPHOKINASE / CREATININE / GLUCOSE / PHOSPHORUS / POTASSIUM / SODIUM / TOTAL PROTEIN: tissue Plasma
[1] = 0 mg/kg, 72 h, dose level Control, time 3 day
[2] = 0 mg/kg, 120 h, dose level Control, time 5 day
[3] = 30 mg/kg, 72 h, dose level Low, time 3 day
[4] = 30 mg/kg, 120 h, dose level Low, time 5 day
[5] = 1750 mg/kg, 72 h, dose level High, time 3 day
[6] = 1750 mg/kg, 120 h, dose level High, time 5 day

Compound: CC(=O)Oc1ccc(C(c2ccc(OC(C)=O)cc2)c2ccccn2)cc1 [BISACODYL]
- BASOPHIL [1]: 0%
- EOSINOPHIL [1]: 0.33%
- ERYTHROCYTE COUNT [1]: 6.03 x10E6/uL
- HEMATOCRIT [1]: 38.8%
- HEMOGLOBIN [1]: 14.26 G/DL
- LEUKOCYTE COUNT [1]: 10.64 x10E3/uL
- LYMPHOCYTE [1]: 83.33%
- MEAN CORPUSCULAR HEMOGLOBIN [1]: 23.64 pg
- MEAN CORPUSCULAR HEMOGLOBIN CONCENTRATION [1]: 36.74 G/DL
- MEAN CORPUSCULAR VOLUME [1]: 64.32 fL
- MONOCYTE [1]: 3.33%
- NEUTROPHIL [1]: 13%
- PLATELET COUNT [1]: 1264.4 x10E3/uL
- ALANINE AMINOTRANSFERASE [1]: 38.83 u/L
- ALBUMIN [1]: 3.55 G/DL
- ALKALINE PHOSPHATASE [1]: 368.33 u/L
- ASPARTATE AMINOTRANSFERASE [1]: 66.17 u/L
- BLOOD UREA NITROGEN [1]: 15.67 mg/dL
- CHLORIDE [1]: 104.33 MEQ/L
- CHOLESTEROL [1]: 76.5 mg/dL
- CREATINE PHOSPHOKINASE [1]: 166.83 u/L
- CREATININE [1]: 0.52 mg/dL
- GLUCOSE [1]: 173.17 mg/dL
- PHOSPHORUS [1]: 11.68 mg/dL
- POTASSIUM [1]: 6.43 MEQ/L
- SODIUM [1]: 149.5 MEQ/L
- TOTAL PROTEIN [1]: 5.93 G/DL
- BASOPHIL [2]: 0%
- EOSINOPHIL [2]: 0%
- ERYTHROCYTE COUNT [2]: 5.88 x10E6/uL
- HEMATOCRIT [2]: 37.87%
- HEMOGLOBIN [2]: 14.48 G/DL
- LEUKOCYTE COUNT [2]: 12.43 x10E3/uL
- LYMPHOCYTE [2]: 84.17%
- MEAN CORPUSCULAR HEMOGLOBIN [2]: 24.65 pg
- MEAN CORPUSCULAR HEMOGLOBIN CONCENTRATION [2]: 38.25 G/DL
- MEAN CORPUSCULAR VOLUME [2]: 64.47 fL
- MONOCYTE [2]: 4.33%
- NEUTROPHIL [2]: 11.5%
- PLATELET COUNT [2]: 1182.33 x10E3/uL
- ALANINE AMINOTRANSFERASE [2]: 38.67 u/L
- ALBUMIN [2]: 3.55 G/DL
- ALKALINE PHOSPHATASE [2]: 342.5 u/L
- ASPARTATE AMINOTRANSFERASE [2]: 63.33 u/L
- BLOOD UREA NITROGEN [2]: 15.5 mg/dL
- CHLORIDE [2]: 104 MEQ/L
- CHOLESTEROL [2]: 75.5 mg/dL
- CREATINE PHOSPHOKINASE [2]: 142.5 u/L
- CREATININE [2]: 0.62 mg/dL
- GLUCOSE [2]: 165.17 mg/dL
- PHOSPHORUS [2]: 10.87 mg/dL
- POTASSIUM [2]: 6.85 MEQ/L
- SODIUM [2]: 150.17 MEQ/L
- TOTAL PROTEIN [2]: 5.93 G/DL
- BASOPHIL [3]: 0%
- EOSINOPHIL [3]: 0%
- ERYTHROCYTE COUNT [3]: 6.9 x10E6/uL
- HEMATOCRIT [3]: 44.1%
- HEMOGLOBIN [3]: 16.25 G/DL
- LEUKOCYTE COUNT [3]: 9.75 x10E3/uL
- LYMPHOCYTE [3]: 83%
- MEAN CORPUSCULAR HEMOGLOBIN [3]: 23.55 pg
- MEAN CORPUSCULAR HEMOGLOBIN CONCENTRATION [3]: 36.85 G/DL
- MEAN CORPUSCULAR VOLUME [3]: 63.85 fL
- MONOCYTE [3]: 4%
- NEUTROPHIL [3]: 13%
- PLATELET COUNT [3]: 1188.5 x10E3/uL
- ALANINE AMINOTRANSFERASE [3]: 37.67 u/L
- ALBUMIN [3]: 3.67 G/DL
- ALKALINE PHOSPHATASE [3]: 281 u/L
- ASPARTATE AMINOTRANSFERASE [3]: 63 u/L
- BLOOD UREA NITROGEN [3]: 17 mg/dL
- CHLORIDE [3]: 107 MEQ/L
- CHOLESTEROL [3]: 72 mg/dL
- CREATINE PHOSPHOKINASE [3]: 177 u/L
- CREATININE [3]: 0.53 mg/dL
- GLUCOSE [3]: 181 mg/dL
- PHOSPHORUS [3]: 12.17 mg/dL
- POTASSIUM [3]: 7.3 MEQ/L
- SODIUM [3]: 152 MEQ/L
- TOTAL PROTEIN [3]: 6.1 G/DL
- BASOPHIL [4]: 0%
- EOSINOPHIL [4]: 0.67%
- ERYTHROCYTE COUNT [4]: 6.91 x10E6/uL
- HEMATOCRIT [4]: 43.53%
- HEMOGLOBIN [4]: 16.47 G/DL
- LEUKOCYTE COUNT [4]: 13.9 x10E3/uL
- LYMPHOCYTE [4]: 85%
- MEAN CORPUSCULAR HEMOGLOBIN [4]: 23.9 pg
- MEAN CORPUSCULAR HEMOGLOBIN CONCENTRATION [4]: 37.97 G/DL
- MEAN CORPUSCULAR VOLUME [4]: 63 fL
- MONOCYTE [4]: 3.33%
- NEUTROPHIL [4]: 11%
- PLATELET COUNT [4]: 1208 x10E3/uL
- ALANINE AMINOTRANSFERASE [4]: 36.67 u/L
- ALBUMIN [4]: 3.53 G/DL
- ALKALINE PHOSPHATASE [4]: 306.33 u/L
- ASPARTATE AMINOTRANSFERASE [4]: 66 u/L
- BLOOD UREA NITROGEN [4]: 19 mg/dL
- CHLORIDE [4]: 106.33 MEQ/L
- CHOLESTEROL [4]: 70.33 mg/dL
- CREATINE PHOSPHOKINASE [4]: 149.33 u/L
- CREATININE [4]: 0.53 mg/dL
- GLUCOSE [4]: 193.33 mg/dL
- PHOSPHORUS [4]: 12.23 mg/dL
- POTASSIUM [4]: 6.8 MEQ/L
- SODIUM [4]: 151.67 MEQ/L
- TOTAL PROTEIN [4]: 5.7 G/DL
- BASOPHIL [5]: 0%
- EOSINOPHIL [5]: 0%
- ERYTHROCYTE COUNT [5]: 7.45 x10E6/uL
- HEMATOCRIT [5]: 45.8%
- HEMOGLOBIN [5]: 17.43 G/DL
- LEUKOCYTE COUNT [5]: 12.3 x10E3/uL
- LYMPHOCYTE [5]: 35.67%
- MEAN CORPUSCULAR HEMOGLOBIN [5]: 23.5 pg
- MEAN CORPUSCULAR HEMOGLOBIN CONCENTRATION [5]: 38.13 G/DL
- MEAN CORPUSCULAR VOLUME [5]: 61.47 fL
- MONOCYTE [5]: 13.67%
- NEUTROPHIL [5]: 50.67%
- PLATELET COUNT [5]: 1194 x10E3/uL
- ALANINE AMINOTRANSFERASE [5]: 34 u/L
- ALBUMIN [5]: 4.3 G/DL
- ALKALINE PHOSPHATASE [5]: 166 u/L
- ASPARTATE AMINOTRANSFERASE [5]: 53 u/L
- BLOOD UREA NITROGEN [5]: 64 mg/dL
- CHLORIDE [5]: 84 MEQ/L
- CHOLESTEROL [5]: 44 mg/dL
- CREATINE PHOSPHOKINASE [5]: 148 u/L
- CREATININE [5]: 0.7 mg/dL
- GLUCOSE [5]: 165 mg/dL
- PHOSPHORUS [5]: 9.4 mg/dL
- POTASSIUM [5]: 8.2 MEQ/L
- SODIUM [5]: 131 MEQ/L
- TOTAL PROTEIN [5]: 7.9 G/DL
- BASOPHIL [6]: 0%
- EOSINOPHIL [6]: 0%
- ERYTHROCYTE COUNT [6]: 7.22 x10E6/uL
- HEMATOCRIT [6]: 44.95%
- HEMOGLOBIN [6]: 16.55 G/DL
- LEUKOCYTE COUNT [6]: 14.05 x10E3/uL
- LYMPHOCYTE [6]: 38%
- MEAN CORPUSCULAR HEMOGLOBIN [6]: 22.95 pg
- MEAN CORPUSCULAR HEMOGLOBIN CONCENTRATION [6]: 36.8 G/DL
- MEAN CORPUSCULAR VOLUME [6]: 62.3 fL
- MONOCYTE [6]: 6.5%
- NEUTROPHIL [6]: 55.5%
- PLATELET COUNT [6]: 1469 x10E3/uL
- ALANINE AMINOTRANSFERASE [6]: 29 u/L
- ALBUMIN [6]: 3.9 G/DL
- ALKALINE PHOSPHATASE [6]: 258 u/L
- ASPARTATE AMINOTRANSFERASE [6]: 36 u/L
- BLOOD UREA NITROGEN [6]: 37 mg/dL
- CHLORIDE [6]: 102.5 MEQ/L
- CHOLESTEROL [6]: 71 mg/dL
- CREATINE PHOSPHOKINASE [6]: 190 u/L
- CREATININE [6]: 0.7 mg/dL
- GLUCOSE [6]: 183 mg/dL
- PHOSPHORUS [6]: 12.1 mg/dL
- POTASSIUM [6]: 8 MEQ/L
- SODIUM [6]: 147.5 MEQ/L
- TOTAL PROTEIN [6]: 7.6 G/DL
